{
  "source": "patent US20050181360A1",
  "about": "“Assay for cell cycle modulators based on the modulation of cyclin d1 degradation in response to ionising radiation” (priority 2000, published 2005)",
  "assay_type_in_all_cases": "cell-based",
  "key": {"[1]": {"system": "MCF-7 cells", "test": "IR-induced degradation of transfected cyclin mutants, immunoblot", "conditions": "transfected MCF-7 cells, IR 20 Gy, two hours", "text": "To map the motif in cyclin D1 that mediates its degradation by genotoxic stress we analyzed several mutants of D1 by expression in MCF-7 cells. In all these experiments a co-transfected GFP construct was used to confirm equal transfection efficiencies between irradiated- and control cells. When cyclin D1 was mutated at a site within the cyclin box that is essential for activation of CDK4/6 (mutant K112E), D1 degradation by IR remained. The same result was obtained when the pRb family binding site in cyclin D1 was mutated (LxCxE mutant). We therefore conclude that D1 induced degradation by genotoxic stress is independent of both CDK4/6 kinase and pRb binding.\nIn the yeast Saccharomyces cerevisiae, degradation of the cyclin C homologue Ume3p can be induced by various stress signals such as heat, oxidative stress and ethanol shock (Cooper et al., 1997; Cooper et al., 1999). Three regions in Ume3p are required for stress-induced degradation, including a destruction box at the amino terminus (RxxL motif), the amino terminal region of the cyclin box and a PEST domain. […] Since cyclin D2 is not degraded by the genotoxic stress response we mutated cyclin D1 to the corresponding amino acid in cyclin D2. […] To further investigate this, we performed a pulse-chase experiment with the cyclin D1 L32A destruction box mutant to determine its half-life. […]"}, "[2]": {"system": "CDK2 activity precipitated from MCF-7/E6 cells", "test": "Immunoprecipitation-kinase assay of CDK2 activity after IR (histone H1 substrate)", "conditions": "two hours after IR, 10 mM cbz-LLL", "description": "We next determined the CDK2 activity precipitated from MCF-7/E6 cells treated with IR. Cells were treated as above, except that cells were harvested after 2 hours. […] Identical results were obtained with parental MCF-7 cells. Therefore, protein degradation seems to be necessary for fast CDK2 kinase inhibition after genotoxic stress.\nWe then examined the CDK2 activity in response to IR of cells transiently over-expressing either D1TA or D1TA-L32A proteins. MCF-7/E6 cells were electroporated as above, irradiated (20 Gy) and harvested 2 hours later. CDK2 protein was immunoprecipitated and its kinase activity was examined using Histone 1 as a substrate (H1). CDK2 protein level was determined by immunoblotting (IB) of the same membrane with an antibody against CDK2.\nTo determine CDK2 activity, specific complexes from either MCF-7/Neo or MCF-7/E6 cells were immunoprecipitated from extracts using anti-CDK2 antibody (M-2). The beads were washed two additional times with kinase buffer (20 mM Tris HCl pH:7.4, 4 mM MgCl2 and 0.5 mM DTT) and kinase reaction was carried out in […] volume kinase buffer containing […] histone-H1 as a specific substrate, […] [γ-^32P]-ATP (5000 mCi/mmol, Amersham) and […] ATP at 37 C for 30 minutes. GSK3-β activity, was determined exactly as described in (van Weeren et al., 1998) using peptide PG-S1 as a substrate."}, "[3]": {"system": "cyclin D1 protein in MCF-7 cells", "test": "IR-induced cyclin D1 downregulation with proteasome inhibitor, Western blot", "conditions": "5 mM cbz-LLL added after IR for two hours", "description": "(§1) We then asked whether cyclin D1 protein stability was affected in response to IR using a pulse-chase experiment. MCF-7 cells were pulse-labelled with [^35S]-methionine and after IR chased with excess cold methionine for the indicated periods of time. Cyclin D1 protein was immunoprecipitated, separated on SDS-PAGE and detected by PhosphorImager. Cyclin D1 was destabilized immediately after IR; its half-life decreased from 40 minutes to less then 20 (FIG. 2). To ask whether the IR-induced degradation of cyclin D1 is mediated by the proteasome, MCF-7 cells were exposed to IR and subsequently the proteasome inhibitor cbz-LLL was added at increasing concentrations for two hours. After two hours, protein lysates were made, separated on 10% SDS PAGE, and Western blotted sequentially with antibodies against cyclin D1, p53 and cyclin E proteins."}, "[4]": {"system": "cyclin D1 protein in MCF-7 cells", "test": "Effect of GSK3 inhibition by Li+ on IR-induced cyclin D1 degradation, immunoblot", "text": "Activation of the PI3K-PKB/Akt-GSK-3β pathway leads to cyclin D1 degradation through phosphorylation of threonine 286 of cyclin D1 by GSK3-β (Diehl et al., 1998). We therefore asked whether this pathway is also activated by IR and is involved in stress-induced degradation of cyclin D1. To investigate the co-immunoprecipitation of GSK3-β with CDK4-cyclin D1 complex, MCF-7 cells were subjected to treatment with proteasome inhibitor cbz-LLL and IR. 5% of the cell lysates or the immunoprecipitated protein complexes were separated on 10% SDS-PAGE and immunoblotted against cyclin-D1, CDK4, GSK3- and control JNK1 proteins. […] We used proteasome inhibitors to protect cyclin D1 from degradation thereby making a direct comparison between the different treatments possible. […] MCF-7 cells were treated with increasing concentrations of LiCl or control KCl and subsequently IR (20 Gy). Lysates were prepared after 2 hours, separated on 10% SDS-PAGE and immunoblotted sequentially with anti-cyclin D1 and anti-p53 antibodies. If this pathway is involved, Li^+ ions should inhibit cyclin D1 degradation."}, "[5]": {"system": "cyclin D1 protein", "test": "Cyclin D1 degradation in response to genotoxic agents", "description": "as §1"}},
  "note": "Residues, ends and D or L forms follow the SMILES beside them. *: point of attachment. Cbz = O=C(OCc1ccccc1)*",
  "data": [
    {"molecule": "T286A: cyclin D1 mutant in which the GSK3-β phosphorylation site was mutated", "values": [
      {"measurement": "degradation by IR", "setting": "[1]", "value": "fully responsive"}
    ]},
    {"molecule": "CC(C)C[C@@H](C=O)NC(=O)[C@H](CC(C)C)NC(=O)[C@H](CC(C)C)NC(=O)OCc1ccccc1", "note": "[cbz-LLL] (Cbz-Leu-Leu-Leu-aldehyde)", "values": [
      {"measurement": "IR-induced reduction of CDK2 activity", "setting": "[2]", "value": "blocked"},
      {"measurement": "block of cyclin D1 downregulation by IR", "setting": "[3]", "value": "completely block"},
      {"measurement": "effect on cyclin E protein levels", "setting": "[3]", "value": "without any effect"}
    ]},
    {"molecule": "K112E: cyclin D1 mutated within the cyclin box at a site essential for activation of CDK4/6", "values": [
      {"measurement": "degradation by IR", "setting": "[1]", "value": "remained"}
    ]},
    {"molecule": "[Cl-].[Li+]", "note": "[Li^+ ions, LiCl]", "values": [
      {"measurement": "effect on cyclin D1 degradation by IR", "setting": "[4]; increasing concentrations of LiCl, IR 20 Gy, lysates after 2 hours", "value": "no detectable effect"},
      {"measurement": "cyclin D1 levels in non-irradiated cells", "setting": "[4]; non-irradiated MCF-7 cells", "value": "increase"}
    ]},
    {"molecule": "N.N.[Cl][Pt][Cl]", "note": "[cis-platin]", "values": [
      {"measurement": "cyclin D1 degradation in response to genotoxic agent", "setting": "[5]", "value": "rapidly degraded"}
    ]}
  ]
}
